Measurements as given in publication PMC6982223, “Design, Synthesis and Molecular Modeling Study of Conjugates of ADP and Morpholino Nucleosides as A Novel Class of Inhibitors of PARP-1, PARP-2 and PARP-3” (International Journal of Molecular Sciences, 2019).

Legend:
Type in all cases: biochemical
[1] = target: T1, Human recombinant poly(ADP-ribose)-polymerase 1 (Homo sapiens, UniProt P09874); assay: autopoly(ADP-ribosyl)ation of PARP-1, [32P]NAD+ incorporation; conditions: for Residual PARP-1 activity / remaining activity at 1000 µM: in the presence of 1 mM compound; for remaining activity at 1000 µM: read-out: Residual PARP-1 activity (converted); for IC50: autopoly(ADP-ribosyl)ation, 0.3 mM NAD+
T1 construct: made in house
Text: (§1) The oligonucleotides were purchased from Biosset (Novosibirsk, Russia). The reagents, solvents and the basic components of buffers were purchased from Sigma (St. Louis, MO, USA), Acros organics (Waltham, MA, USA) or Promega (Madison, WI, USA). γ–[^32P]-ATP and α–[^32P]-ATP (with specific activities of 5000 and 3000 Ci/mmol, respectively) were from the Laboratory of Biotechnology (Institute of Chemical Biology and Fundamental Medicine, Novosibirsk, Russia). T4 polynucleotide kinase was from Biosan (Novosibirsk, Russia). SUMO fusion expression vector pETHSUL (GenBank: EF205333.1) and pSUPER vector coding for the catalytic domain of the S. cerevisiae SUMO hydrolase dtUD1 were kindly provided by Dr. P. Loll (Drexel University, Philadelphia, USA). His6 and Strep-II double-tagged dtUD1 hydrolase was expressed and purified as described in ref. [81]. Human recombinant poly(ADP-ribose)-polymerase 1 (EC 2.4.2.30) was prepared as described previously. Murine recombinant poly(ADP-ribose)-polymerase 2 (EC 2.4.2.30) was purified as described previously. Plasmid encoding human PARP-3 was kindly provided by Dr. A. Ishchenko (Gustave Roussy, Université Paris-Saclay, France). Poly(ADP-ribose)-polymerase 3 (EC 2.4.2.30) was purified according to [6].
(§2) The reaction of autopoly(ADP-ribosyl)ation was carried out as follows: for PARP-1 50 mM tris-HCl, pH 8.0, 20 mM MgCl2, 150 mM NaCl, and 7 mM β-mercaptoethanol, activated DNA 2 OE/mL, 0.3 mM [^32P] NAD+ at 37 °C. The reaction was initiated by adding PARP-1 to 200 nM and the reaction mixtures were incubated for 1.5 min. For PARP-2: 50 mM tris-HCl, pH 8.0, 3 mM spermin, 150 mM NaCl, and 7 mM β-mercaptoethanol, activated DNA 2 OE/mL, 0.6 mM [^32P] NAD+ at 37 °C. The reaction was initiated by adding PARP-2 to 800 nM and the reaction mixtures were incubated for 5 min. The reaction was stopped by placing 10 μL aliquots onto Whatman 1 paper filters soaked with 5 % TCA. The filters were washed with 5% TCA for four times and dried in air after the removal of TCA with 90% ethanol. The incorporation of radioactivity into the product was calculated with a Tri-Carb 2800 scintillation counter (Perkin Elmer, Waltham, MA, USA) according to the Cherenkov method or using Typhoon FLA 9500 scanner (GE Healthcare, Chicago, IL, USA). To determine the IC50 value of inhibitors (concentration of the compound required reducing the enzyme activity by 50%), we studied the activity of the enzyme at different concentrations of inhibitors. Measurements were done in at least two independent experiments. IC50 values were calculated using the Origin Pro 8.0 software by nonlinear regression analysis.

[2] = target: T2, Murine recombinant poly(ADP-ribose)-polymerase 2 (Mus musculus, UniProt O88554); assay: autopoly(ADP-ribosyl)ation of PARP-2, [32P]NAD+ incorporation; conditions: for Residual PARP-2 activity / remaining activity at 1000 µM: in the presence of 1 mM compound; for IC50: autopoly(ADP-ribosyl)ation, 0.6 mM NAD+; for remaining activity at 1000 µM: read-out: Residual PARP-2 activity (converted)
T2 construct: made in house
Text: as §1, §2

PARP-1 = target: T3, PARP-1 (Homo sapiens, UniProt P09874); assay: kinetics of PARP-1 inhibition (Km, Vmax, type of inhibition) by fluorescence anisotropy; conditions: for type of inhibition: PARP-1 catalyzed reaction, versus NAD+
T3 construct: made in house
Procedure: The type of inhibition was determined based on at what stage of the reaction the inhibitor binds to the enzyme (before or after the substrate binding) and where it binds (at the substrate binding site or elsewhere). There are four types of inhibition: competitive, whereby an inhibitor binding occurs at the substrate-binding site; noncompetitive, where an inhibitor binds at the allosteric center; mixed with inhibitor binding at both the active and allosteric center; or uncompetitive under an inhibitor binding to the enzyme-substrate complex. Determination of the type of inhibition is necessary to confirm the computer simulation data and to plan further modifications of the inhibitor structure. The type of inhibition can be determined from the plots of the reaction parameters, such as maximum rates, Vmax and the apparent Michaelis constant, Km, values, versus inhibitor concentration. […] Noncompetitive inhibition leads to a decrease of Vmax and retention of the Km values. Mixed inhibition is a superposition of the first two, and is characterized by a decrease in the reaction rate and an increase in Km values. In the case of uncompetitive inhibition, both […].
To determine the type of inhibition of the studied compounds, the activity of PARP-1 was measured at presence of three different inhibitor concentrations at nine NAD+ substrate concentrations by the fluorescence anisotropy technique. Based on the obtained data, dependence graphs of the initial reaction rate on the substrate concentration were constructed, and reaction parameters such as maximum reaction rate (Vmax) and apparent Michaelis constant (Km) values were found (Tables S3 and S4, Supporting). To determine the type of inhibition, we plotted the dependence graph of Vmax and Km values on the inhibitor concentration using OriginPro 8.6.0 software. (Figure 3). […] Therefore, the results of modeling of the binding type of these compounds in the enzyme’s active center are legitimate.
The determination of the kinetic parameters of inhibition Km and Vmax was carried out as described. In all experiments, the points on the experimental curves represent the average of a minimum three independent experiments.

T2 sequence (O88554 whole entry): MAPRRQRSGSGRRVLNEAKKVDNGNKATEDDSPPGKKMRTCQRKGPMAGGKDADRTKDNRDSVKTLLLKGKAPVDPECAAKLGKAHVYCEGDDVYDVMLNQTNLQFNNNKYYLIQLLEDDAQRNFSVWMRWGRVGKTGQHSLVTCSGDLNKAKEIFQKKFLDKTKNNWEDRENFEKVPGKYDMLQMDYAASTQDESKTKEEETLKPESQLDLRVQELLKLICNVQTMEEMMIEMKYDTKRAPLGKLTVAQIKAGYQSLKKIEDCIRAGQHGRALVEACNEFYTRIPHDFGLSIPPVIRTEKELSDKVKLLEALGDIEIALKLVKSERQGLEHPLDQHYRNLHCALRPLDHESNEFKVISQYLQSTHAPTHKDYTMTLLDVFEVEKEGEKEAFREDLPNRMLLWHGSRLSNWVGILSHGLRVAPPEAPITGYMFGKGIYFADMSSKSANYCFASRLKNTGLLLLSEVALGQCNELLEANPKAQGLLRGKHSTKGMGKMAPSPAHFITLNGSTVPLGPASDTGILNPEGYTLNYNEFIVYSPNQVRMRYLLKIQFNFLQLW
T1 sequence (P09874 whole entry): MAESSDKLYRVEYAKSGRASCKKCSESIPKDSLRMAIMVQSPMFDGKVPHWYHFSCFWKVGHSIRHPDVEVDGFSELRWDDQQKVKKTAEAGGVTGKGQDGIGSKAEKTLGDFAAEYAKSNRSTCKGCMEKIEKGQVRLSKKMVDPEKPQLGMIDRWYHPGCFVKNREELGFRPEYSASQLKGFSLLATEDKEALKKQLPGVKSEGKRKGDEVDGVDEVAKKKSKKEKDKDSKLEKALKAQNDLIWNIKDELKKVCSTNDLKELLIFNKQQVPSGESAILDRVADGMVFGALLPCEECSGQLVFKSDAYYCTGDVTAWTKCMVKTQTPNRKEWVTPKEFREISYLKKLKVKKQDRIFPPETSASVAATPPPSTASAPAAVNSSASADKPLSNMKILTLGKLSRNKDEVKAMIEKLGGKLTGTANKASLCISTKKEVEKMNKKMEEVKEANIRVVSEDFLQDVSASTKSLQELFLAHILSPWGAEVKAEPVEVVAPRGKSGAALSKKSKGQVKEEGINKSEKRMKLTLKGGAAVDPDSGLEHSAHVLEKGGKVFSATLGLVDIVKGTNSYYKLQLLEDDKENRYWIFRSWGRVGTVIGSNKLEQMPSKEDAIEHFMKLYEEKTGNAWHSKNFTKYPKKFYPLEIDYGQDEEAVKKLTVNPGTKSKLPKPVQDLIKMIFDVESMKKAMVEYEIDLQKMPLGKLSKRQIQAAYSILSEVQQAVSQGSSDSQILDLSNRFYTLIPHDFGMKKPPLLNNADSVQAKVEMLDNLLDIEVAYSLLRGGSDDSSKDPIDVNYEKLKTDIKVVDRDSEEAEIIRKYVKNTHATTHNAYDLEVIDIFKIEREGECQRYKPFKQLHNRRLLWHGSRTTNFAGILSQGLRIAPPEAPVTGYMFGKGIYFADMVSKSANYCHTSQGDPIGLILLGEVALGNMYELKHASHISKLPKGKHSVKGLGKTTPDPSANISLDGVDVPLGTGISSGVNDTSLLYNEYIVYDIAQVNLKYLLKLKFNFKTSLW
T3 sequence (P09874 whole entry): as above

| SMILES | remaining activity at 1000 µM [1] [%] | IC50 [2] [µM] | remaining activity at 1000 µM [2] [%] | other results |
| --- | --- | --- | --- | --- |
| Nc1ncnc2c1ncn2[C@@H]1O[C@H](CO)[C@@H](O)[C@H]1O [Ado, reference compound] | – | – | – | Residual PARP-1 activity [1]: 77% ± 21%; Residual PARP-2 activity [2]: 86% ± 1% |
| NC(=O)c1cccc(N)c1 [Compound 3-AB, 3-aminobenzamide, reference compound] | – | – | – | Vmax (PARP-1; inhibitor concentration 50 μМ): 0.16 RFU/sec; Vmax (PARP-1; inhibitor concentration 100 μМ): 0.16 RFU/sec; Vmax (PARP-1; inhibitor concentration 500 μМ): 0.16 RFU/sec |
| Nc1ncnc2c1ncn2C1OC(COP(=O)(O)OP(=O)(O)OCC2CNCC(n3cc(Br)c(=O)[nH]c3=O)O2)C(O)C1O (centres unmarked) [Compound 4BrU] | 36 | 474 | – | – |
| Nc1ncnc2c1ncn2C1OC(COP(=O)(O)OP(=O)(O)OCC2CNCC(n3cc(Cl)c(=O)[nH]c3=O)O2)C(O)C1O (centres unmarked) [Compound 4ClU] | 57.5 | – | 46.8 | – |
| O=c1[nH]c(=O)n([C@@H]2O[C@H](CO)[C@@H](O)[C@H]2O)cc1Br [Compound 5-Br-Urd, 5-Br-uridine, reference compound] | – | 190 ± 16 | – | IC50 [1]: 244 ± 83 µM |
| O=c1[nH]c(=O)n([C@@H]2O[C@H](CO)[C@@H](O)[C@H]2O)cc1Cl [Compound 5-Cl-Urd, 5-Cl-uridine, reference compound] | – | 196 ± 25 | – | Residual PARP-1 activity [1]: 82% ±17% |
| O=c1[nH]c(=O)n([C@@H]2O[C@H](CO)[C@@H](O)[C@H]2O)cc1I [Compound 5-I-Urd, 5-I-uridine, reference compound] | – | 26.5 ± 3.5 | – | IC50 [1]: 49 ± 9 µM |
| Nc1ncnc2c1ncn2C1OC(COP(=O)(O)OP(=O)(O)NCC2CNCC(n3cc(Br)c(=O)[nH]c3=O)O2)C(O)C1O (centres unmarked) [Compound 10BrU] | 60 | 254 | – | – |
| Nc1ncnc2c1ncn2C1OC(COP(=O)(O)OP(=O)(O)NCC2CNCC(n3cc(Cl)c(=O)[nH]c3=O)O2)C(O)C1O (centres unmarked) [Compound 10ClU] | 46 | – | 47 | – |
| Nc1ncnc2c1ncn2[C@H]1CNC[C@@H](CO)O1 [Compound 11A] | 82 | – | 90 | – |
| O=c1[nH]c(=O)n([C@H]2CNC[C@@H](CO)O2)cc1Br [Compound 11BrU] | – | 210 ± 48 | – | IC50 [1]: 61 ± 16 µM |
| Nc1ccn([C@H]2CNC[C@@H](CO)O2)c(=O)n1 [Compound 11C] | – | – | 58 | – |
| O=c1[nH]c(=O)n([C@H]2CNC[C@@H](CO)O2)cc1Cl [Compound 11ClU] | – | 378 | – | IC50 [1]: 233 ± 25 µM |
| Nc1nc2c(ncn2[C@H]2CNC[C@@H](CO)O2)c(=O)[nH]1 [Compound 11G] | – | – | 64 | – |
| O=c1[nH]c(=O)n([C@H]2CNC[C@@H](CO)O2)cc1I [Compound 11IU] | – | 85 ± 9 | – | type of inhibition (PARP-1): competitive inhibitors; Vmax (PARP-1; inhibitor concentration 50 μМ): 0.066 RFU/sec; Vmax (PARP-1; inhibitor concentration 100 μМ): 0.066 RFU/sec; Vmax (PARP-1; inhibitor concentration 500 μМ): 0.060 RFU/sec; IC50 [1]: 53 ± 12 µM |
| O=c1ccn([C@H]2CNC[C@@H](CO)O2)c(=O)[nH]1 [Compound 11U] | 91 | – | 97 | – |
| Nc1ccn([C@@H]2O[C@H](CO)[C@@H](O)[C@H]2O)c(=O)n1 [Cyd, reference compound] | – | – | – | Residual PARP-1 activity [1]: 81% ± 16%; Residual PARP-2 activity [2]: 85% ± 4% |
| Nc1nc2c(ncn2[C@@H]2O[C@H](CO)[C@@H](O)[C@H]2O)c(=O)[nH]1 [Guo, reference compound] | – | – | – | Residual PARP-1 activity [1]: 60% ± 13%; Residual PARP-2 activity [2]: 46% ± 25% |
| O=c1ccn([C@@H]2O[C@H](CO)[C@@H](O)[C@H]2O)c(=O)[nH]1 [Urd, reference compound] | – | – | – | Residual PARP-2 activity [2]: 96% ± 10% |
| Cc1cn([C@@H]2O[C@H](CO)[C@@H](O)[C@H]2O)c(=O)[nH]c1=O [rThd, reference compound] | – | 330 ± 61 | – | IC50 [1]: 277 ± 107 µM |

Continued, in another order:

| remaining activity at 1000 µM [1] [%] | IC50 [2] [µM] | remaining activity at 1000 µM [2] [%] | SMILES | other results |
| --- | --- | --- | --- | --- |
| 80 | 421 ± 6 | – | Nc1ncnc2c1ncn2C1CNCC(COP(=O)(O)OP(=O)(O)OCC2OC(n3cnc4c(N)ncnc43)C(O)C2O)O1 (centres unmarked) [Compound 4A] | – |
| 96 | – | 66 | Nc1ccn(C2CNCC(COP(=O)(O)OP(=O)(O)OCC3OC(n4cnc5c(N)ncnc54)C(O)C3O)O2)c(=O)n1 (centres unmarked) [Compound 4C] | – |
| 45.5 | – | 34 | Nc1nc2c(ncn2C2CNCC(COP(=O)(O)OP(=O)(O)OCC3OC(n4cnc5c(N)ncnc54)C(O)C3O)O2)c(=O)[nH]1 (centres unmarked) [Compound 4G] | – |
| – | 160 | – | Nc1ncnc2c1ncn2C1OC(COP(=O)(O)OP(=O)(O)OCC2CNCC(n3cc(I)c(=O)[nH]c3=O)O2)C(O)C1O (centres unmarked) [Compound 4IU] | type of inhibition (PARP-1): mixed inhibitor; Vmax (PARP-1; inhibitor concentration 50 μМ): 0.16 RFU/sec; Vmax (PARP-1; inhibitor concentration 100 μМ): 0.15 RFU/sec; Vmax (PARP-1; inhibitor concentration 500 μМ): 0.14 RFU/sec; IC50 [1]: 255 µM |
| 40 | 474 | – | Cc1cn(C2CNCC(COP(=O)(O)OP(=O)(O)OCC3OC(n4cnc5c(N)ncnc54)C(O)C3O)O2)c(=O)[nH]c1=O (centres unmarked) [Compound 4T] | – |
| 93 | – | 67 | Nc1ncnc2c1ncn2C1OC(COP(=O)(O)OP(=O)(O)OCC2CNCC(n3ccc(=O)[nH]c3=O)O2)C(O)C1O (centres unmarked) [Compound 4U] | – |
| 87.5 | – | 34.5 | Nc1ccn(C2CNCC(CNP(=O)(O)OP(=O)(O)OCC3OC(n4cnc5c(N)ncnc54)C(O)C3O)O2)c(=O)n1 (centres unmarked) [Compound 10C] | – |
| 74 | 224 | – | Nc1nc2c(ncn2C2CNCC(CNP(=O)(O)OP(=O)(O)OCC3OC(n4cnc5c(N)ncnc54)C(O)C3O)O2)c(=O)[nH]1 (centres unmarked) [Compound 10G] | – |
| – | 136 | – | Cc1cn(C2CNCC(CNP(=O)(O)OP(=O)(O)OCC3OC(n4cnc5c(N)ncnc54)C(O)C3O)O2)c(=O)[nH]c1=O (centres unmarked) [Compound 10T] | IC50 [1]: 220 µM |
| 89 | – | 33 | Nc1ncnc2c1ncn2C1OC(COP(=O)(O)OP(=O)(O)NCC2CNCC(n3ccc(=O)[nH]c3=O)O2)C(O)C1O (centres unmarked) [Compound 10U] | – |
| – | 114 ± 32 | – | Cc1cn([C@H]2CNC[C@@H](CO)O2)c(=O)[nH]c1=O [Compound 11T] | IC50 [1]: 148 ± 53 µM |
